Assay results reported in patent US7135457B1, “Random peptides that bind to gastro-intestinal tract (GIT) transport receptors and related methods” (Cytogen Corporation, priority 1997, dated 2006).
Peptide text beside a SMILES is read from it. * marks the point of attachment. Dansyl = CN(C)c1cccc2c(S(=O)(=O)*)cccc12

Tests used:
[1] = system: P100 membrane fractions derived from Caco-2 cells; test: Dansylated peptide ELISA on P100: PAX2 and HAX42 peptides relative binding; conditions: PAX2 peptides, ratio to ZElan021 (HAX42 = 1.00); for Binding value at 20 μg/ml: first 20 μg/ml column
[2] = system: P100 membrane fractions derived from Caco-2 cells; test: as above; conditions: ratio to ZElan021 (HAX42 = 1.00)
BSA = BSA (Bos taurus, UniProt P02769); test: Phage ELISA on BSA (background control protein); format: binding
Chain of BSA (P02769 25-607): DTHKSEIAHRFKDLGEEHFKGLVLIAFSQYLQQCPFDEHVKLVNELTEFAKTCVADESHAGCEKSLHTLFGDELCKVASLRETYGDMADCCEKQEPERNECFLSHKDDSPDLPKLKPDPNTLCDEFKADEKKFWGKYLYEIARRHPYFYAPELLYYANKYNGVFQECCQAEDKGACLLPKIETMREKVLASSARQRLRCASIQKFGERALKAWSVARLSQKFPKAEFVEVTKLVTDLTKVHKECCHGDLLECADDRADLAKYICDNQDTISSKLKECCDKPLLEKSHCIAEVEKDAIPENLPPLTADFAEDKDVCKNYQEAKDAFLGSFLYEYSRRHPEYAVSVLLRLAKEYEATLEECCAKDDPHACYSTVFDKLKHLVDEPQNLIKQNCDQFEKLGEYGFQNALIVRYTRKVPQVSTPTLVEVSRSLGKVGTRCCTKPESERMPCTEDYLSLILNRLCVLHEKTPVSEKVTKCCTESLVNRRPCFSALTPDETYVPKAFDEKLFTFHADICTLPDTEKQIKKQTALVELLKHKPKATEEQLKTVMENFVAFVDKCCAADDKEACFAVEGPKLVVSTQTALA
Description: 96 well plates were coated overnight with GIT receptor, BSA and, optionally, IDE (insulin degrading enzyme, an irrelevant His-fusion protein) or hTF. The plates were blocked for one hour with 0.5% BSA-PBS. After clarification, the amplified phage were diluted 1:100 in 1% BSA plus 0.05% Tween 20 in PBS and added to the plates. Following incubation of the plates on a rotator for 1 to 2 hours, the plates were washed 5 times with 1% BSA plus 0.05% Tween 20 in PBS. Dilute anti-M13-HRP conjugate (anti-M13 antibody linked to horse radish peroxidase (HRP)) was added to all the wells and the plate was incubated for one hour on a rotator. After the plates were washed 5 times, as described above, TMB substrate was added to the wells. The plates were read at 650 nm absorbance.

[3] = Drug potency, peptide loading and size of coacervated particles; format: physicochemical; conditions: formulation 1 particles (coacervation), blend; for Insulin (insulin potency): coated with the named peptide; for Peptide (level of peptide coated onto the particles): measured by fluorescence

Row | BSA (BSA; Table 1, phage panned on hSI) [OD] | Compound | Binding value at 50 μg/ml (Southern Ab) [1] | Binding value at 20 μg/ml [1] | Binding value at 50 μg/ml ([1]; first 50 μg/ml column) | Binding value at 50 μg/ml ([1]; second 50 μg/ml column) | Binding value at 50 μg/ml (Jackson Ab) [2] | Insulin (insulin potency) [3] [mg/g] | Peptide (level of peptide coated onto the particles) [3] [µL/mg] | BSA (BSA; Table 3) [OD]
1 | – | C[C@H](NC(=O)[C@H](CCCNC(=N)N)NC(=O)[C@H](CCCNC(=N)N)NC(=O)[C@H](CC(N)=O)NC(=O)[C@H](Cc1c[nH]cn1)NC(=O)[C@H](CO)NC(=O)[C@H](CO)NC(=O)[C@@H](N)CCCCNS(=O)(=O)c1cccc2c(N(C)C)cccc12)C(=O)N[C@@H](CCCNC(=N)N)C(=O)N[C@H](C(=O)N[C@@H](CCCNC(=N)N)C(N)=O)[C@@H](C)O [ZElan079] (H-K(Dansyl)SSHNRRARTR-NH2) | 0.53 | 0.31 | 0.97 | 0.68 | 0.83 | – | – | –
2 | – | CC(C)C[C@H](NC(=O)[C@H](CCCNC(=N)N)NC(=O)[C@H](CCCNC(=N)N)NC(=O)[C@H](CC(N)=O)NC(=O)[C@H](Cc1c[nH]cn1)NC(=O)[C@H](CO)NC(=O)[C@H](CO)NC(=O)[C@@H](N)CCCCNS(=O)(=O)c1cccc2c(N(C)C)cccc12)C(=O)N[C@@H](C)C(=O)N[C@H](C(=O)N[C@@H](CCCNC(=N)N)C(N)=O)[C@@H](C)O [ZElan080] (H-K(Dansyl)SSHNRRLATR-NH2) | 0.38 | 0.23 | 0.84 | 0.45 | 0.67 | – | – | –
3 | 0.051 | RVGQCTDSDVRRPWARSCAHQGCGAGTRNSHGCITRPLRQASAH [SNi10] | – | – | – | – | – | 59.5 | 1.75 | –
4 | – | RYKHDIGCDAGVDKKSSSVRGGCGAHSSPPRAGRGPRGTMVSRL [DCX8] | – | – | – | – | – | 59.1 | 1.87 | 0.063
